According to BindingDB's records for doi:10.1016/S0960-894X(00)80622-8 (1992):

Assay: Compound was evaluated for inhibition against Phospholipase A2 of Croatalus adamanteus

IC50	Compound
> 1000 µM	CON(/C=C\C(=O)c1ccc(F)cc1)Cc1ccccc1 [(Z)-3-(Benzyl-methoxy-amino)-1-(4-fluoro-phenyl)-propenone]
> 1000 µM	CC(=O)ON(C=CC(=O)c1ccc(F)cc1)Cc1ccccc1 [1-(4-fluorophenyl)-3-benzyl-3-acetyloxyamino-propenone]
> 1000 µM	O=C(/C=C\N(O)C1CCCCC1)c1ccc(F)cc1
